The results in this text go back to US4263323A, “β-Receptor blocking compounds and treatment of cardiovascular disorders therewith” (priority 1979, dated 1981).

One test has as its target T1, cardiac β-receptors (Felis catus, UniProt Q9TST6).
T1 construct: from tissue; host or cells: heart of the living, reserpinized, anesthetized cat (in vivo heart rate)
The test can be described thus: β-blockade of isoprenaline heart rate response, reserpinized anesthetized cat. The settings on record: iv, 0.012-51.2 μmol/kg, isoproterenol 0.1 μg/kg i.v. It is filed as in vivo. On the procedure:
The new compounds have valuable pharmacological properties. Thus they block cardiac β-receptors, which is shown at the determination of the antagonism of tachycardia after an intravenous injection of 0.1 ug/kg of 1-isoproterenol sulphate on an anaesthetized cat at an intravenous dose of 0.012-51.2 umol/kg. The compounds are heart selective with regard to their β-blocking activity.
The agents of the present invention were tested as regards their biological properties. All compounds were thereby tested in anesthetized cats (males and females weighing 2.5-3.5 kg) pretreated with reserpine (5 mg/kg bodyweight administered intramuscularly) about 16 hours before the experiments. The animals were pretreated with reserpine in order to eliminate the endogenous sympathetic control of heart rate and vascular smooth muscle tone. The cats were anesthetized with pentobarbital (30 mg/kg bodyweight administered i.p.) and artificially ventilated with room air. A bilateral vagotomy was performed in the neck. […] Vascular resistance in one hind leg was recorded by an autoperfusion technique. […] Blockade of the heart rate and vascular resistance response to isoproterenol was calculated for each dose and expressed as percent decrease of the response obtained when isoproterenol was injected before any dose of the test compound. […]

Test [1] deals with T2, β-receptors (vascular resistance in one hind leg) (Felis catus, UniProt Q9TST5).
T2 construct: from tissue; host or cells: hind-leg vasculature of the living, reserpinized, anesthetized cat (in vivo)
T2 sequence (Q9TST5 whole entry): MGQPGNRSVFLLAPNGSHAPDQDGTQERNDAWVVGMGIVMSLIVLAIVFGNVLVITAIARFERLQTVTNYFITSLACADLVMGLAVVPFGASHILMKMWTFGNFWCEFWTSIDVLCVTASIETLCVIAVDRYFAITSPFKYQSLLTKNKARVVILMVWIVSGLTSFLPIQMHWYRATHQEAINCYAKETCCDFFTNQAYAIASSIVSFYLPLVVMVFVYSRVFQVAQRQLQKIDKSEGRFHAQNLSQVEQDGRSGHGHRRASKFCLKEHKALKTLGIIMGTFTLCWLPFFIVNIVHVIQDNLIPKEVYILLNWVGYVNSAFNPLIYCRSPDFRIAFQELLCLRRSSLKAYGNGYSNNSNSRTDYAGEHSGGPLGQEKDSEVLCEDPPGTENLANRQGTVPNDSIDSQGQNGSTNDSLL
Description: β-blockade of isoprenaline peripheral resistance response (hind leg), reserpinized anesthetized cat. It is filed as in vivo. The settings on record: iv, 0.012-51.2 μmol/kg, isoproterenol 0.1 μg/kg i.v. On the procedure: (§1) The agents of the present invention were tested as regards their biological properties. All compounds were thereby tested in anesthetized cats (males and females weighing 2.5-3.5 kg) pretreated with reserpine (5 mg/kg bodyweight administered intramuscularly) about 16 hours before the experiments. The animals were pretreated with reserpine in order to eliminate the endogenous sympathetic control of heart rate and vascular smooth muscle tone. The cats were anesthetized with pentobarbital (30 mg/kg bodyweight administered i.p.) and artificially ventilated with room air. A bilateral vagotomy was performed in the neck. Blood pressure was obtained from a cannulated carotid artery and heart rate was registered from a cardiotachometer, triggered by the electrocardiogram (ECG). Vascular resistance in one hind leg was recorded by an autoperfusion technique. Intrinsic beta mimetic activity on the heart was seen as increased heart rate after drug administration. The test compounds were given intravenously in logarithmically increasing doses. […] Blockade of the heart rate and vascular resistance response to isoproterenol was calculated for each dose and expressed as percent decrease of the response obtained when isoproterenol was injected before any dose of the test compound. […]

A further test has as its system heart rate. The test can be described thus: Intrinsic beta mimetic activity on the heart, reserpinized cat. It is filed as in vivo. On the procedure: as §1
The target of another test is T3, α-receptors (Rattus norvegicus, UniProt P43140).
T3 construct: from tissue; host or cells: isolated rat vas deferens
T3 sequence (P43140 1-466): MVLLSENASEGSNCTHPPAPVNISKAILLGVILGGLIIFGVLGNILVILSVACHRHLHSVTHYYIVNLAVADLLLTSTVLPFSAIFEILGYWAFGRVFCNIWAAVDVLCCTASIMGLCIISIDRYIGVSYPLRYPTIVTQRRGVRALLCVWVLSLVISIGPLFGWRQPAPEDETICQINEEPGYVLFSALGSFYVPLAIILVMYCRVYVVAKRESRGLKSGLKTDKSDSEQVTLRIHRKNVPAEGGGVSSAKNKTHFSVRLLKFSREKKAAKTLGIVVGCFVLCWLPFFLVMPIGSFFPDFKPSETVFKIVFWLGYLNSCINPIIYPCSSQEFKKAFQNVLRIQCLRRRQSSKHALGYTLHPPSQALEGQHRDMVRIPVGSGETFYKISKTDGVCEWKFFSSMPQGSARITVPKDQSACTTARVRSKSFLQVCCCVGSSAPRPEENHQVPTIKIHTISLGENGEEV
Description: α-receptor blocking activity in isolated rat vas deferens (noradrenaline contraction). To be noted: read-out: pA2 (α-receptor blocking activity) (converted). As to the method:
α-receptor blocking activity was tested in isolated rat vas deferens. Noradrenaline administered to the organ bath induces a contraction in vas deferens by activating α-receptors. The ability of the test compounds to inhibit this noradrenaline response was studied. The α-receptor blocking activity was expressed as pA2 values. pA2 is defined as the negative logarithm of the concentration of an antagonist (in our case the test compounds) which leads to the fact that the dose of the agonist (in our case noradrenaline) has to be doubled in order to obtain the same effect of the agonist as that obtained without the antagonist present. Thus a high pA2 value indicates a high α-receptor blocking activity of a compound.

As usually defined, the ED50 is the midpoint of the dose-response relation. High values mean a need for a large dose, low ones an effect at a small dose. For orientation: Emax means the maximal effect, on the per cent scale that the assay sets.

T1 sequence (Q9TST6 whole entry): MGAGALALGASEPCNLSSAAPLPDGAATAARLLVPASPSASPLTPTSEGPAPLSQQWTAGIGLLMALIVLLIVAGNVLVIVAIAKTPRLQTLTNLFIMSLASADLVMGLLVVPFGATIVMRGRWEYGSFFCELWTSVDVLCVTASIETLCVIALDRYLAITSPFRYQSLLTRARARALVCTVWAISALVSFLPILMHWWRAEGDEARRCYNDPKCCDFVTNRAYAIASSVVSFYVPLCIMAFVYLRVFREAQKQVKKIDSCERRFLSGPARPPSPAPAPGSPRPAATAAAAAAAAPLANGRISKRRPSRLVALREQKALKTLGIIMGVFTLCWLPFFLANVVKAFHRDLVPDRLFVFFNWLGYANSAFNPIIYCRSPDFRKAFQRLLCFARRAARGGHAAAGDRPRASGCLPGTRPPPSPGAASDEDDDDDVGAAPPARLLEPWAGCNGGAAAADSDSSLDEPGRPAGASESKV

Take `COCCNC(=O)COc1ccccc1OCC(O)CNCCOc1ccc(O)cc1` (centres unmarked) [3-[2-(4-hydroxyphenoxy)ethylamino]-1-o-methoxyethylaminocarbonylmethoxyphenoxy-propanol-2]: the ED50 turned out to be 0.05 µmol/kg at cardiac β-receptors and 1.8 µmol/kg in test [1]. This compound also came in with a maximal response (Emax) in the test on heart rate (Felis catus, iv, % of isoprenaline) of 0%. Moreover, the “Intrinsic activity Δbeats/min.” value with heart rate (i.v.) is given as 0 beats/min. On α-receptors, the Kb was 3.16 µM.
